Measured values published in ChEMBL document CHEMBL3886513, “Benzothiazole-based pyridinium compounds” (2016).

How the values were obtained:
[1] = biological target: Cholinesterase (Homo sapiens, UniProt P06276); assay: (§1) AChE/BuChE Inhibition Assay: The cholinesterase assays were performed using colorimetric method reported by Ellman. The appearance of product was monitored at 412 nm for 5 min using a spectrophotometer. The reaction rates were compared and the percent inhibition due to the presence of test compounds was calculated. Inhibition curve was obtained for each compound. The linear regression parameters were determined and the IC50 values extrapolated.
[2] = biological target: Acetylcholinesterase (Electrophorus electricus, UniProt O42275); assay: as §1
[3] = biological target: Acetylcholinesterase (Homo sapiens, UniProt P22303); assay: as §1
Sequence of Acetylcholinesterase (Homo sapiens, UniProt P22303) (P22303 whole entry): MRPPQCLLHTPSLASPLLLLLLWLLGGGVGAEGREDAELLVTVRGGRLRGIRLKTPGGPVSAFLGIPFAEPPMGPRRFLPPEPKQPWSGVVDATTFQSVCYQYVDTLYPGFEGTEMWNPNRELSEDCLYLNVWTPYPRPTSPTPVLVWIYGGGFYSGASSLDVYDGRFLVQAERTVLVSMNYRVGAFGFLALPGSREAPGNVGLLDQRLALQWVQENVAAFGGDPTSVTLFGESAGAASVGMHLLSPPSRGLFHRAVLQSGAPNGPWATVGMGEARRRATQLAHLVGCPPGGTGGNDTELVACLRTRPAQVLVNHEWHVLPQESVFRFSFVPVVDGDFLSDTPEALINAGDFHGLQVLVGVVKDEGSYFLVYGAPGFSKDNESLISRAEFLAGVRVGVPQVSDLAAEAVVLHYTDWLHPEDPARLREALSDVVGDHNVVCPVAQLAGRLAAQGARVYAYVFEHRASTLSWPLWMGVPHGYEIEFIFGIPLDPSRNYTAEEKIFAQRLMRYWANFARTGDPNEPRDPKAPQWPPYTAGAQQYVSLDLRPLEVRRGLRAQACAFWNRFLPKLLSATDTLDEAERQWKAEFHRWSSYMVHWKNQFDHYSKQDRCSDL

Sequence of Cholinesterase (P06276 whole entry): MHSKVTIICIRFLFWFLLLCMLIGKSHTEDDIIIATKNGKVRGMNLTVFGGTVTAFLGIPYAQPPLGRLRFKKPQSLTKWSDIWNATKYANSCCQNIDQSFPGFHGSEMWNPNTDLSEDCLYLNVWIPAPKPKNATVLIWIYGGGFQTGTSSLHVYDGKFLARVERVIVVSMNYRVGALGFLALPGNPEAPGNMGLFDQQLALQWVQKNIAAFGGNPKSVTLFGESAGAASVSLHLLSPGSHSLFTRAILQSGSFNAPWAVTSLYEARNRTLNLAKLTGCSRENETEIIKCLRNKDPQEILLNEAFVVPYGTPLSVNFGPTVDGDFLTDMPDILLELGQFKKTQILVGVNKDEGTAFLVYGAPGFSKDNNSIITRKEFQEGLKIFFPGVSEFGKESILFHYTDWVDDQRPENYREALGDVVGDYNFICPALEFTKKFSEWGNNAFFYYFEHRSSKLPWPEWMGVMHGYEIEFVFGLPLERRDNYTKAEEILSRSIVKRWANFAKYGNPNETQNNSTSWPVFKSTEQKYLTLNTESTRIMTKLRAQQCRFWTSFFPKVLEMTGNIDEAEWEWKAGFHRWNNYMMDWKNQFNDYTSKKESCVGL
Sequence of Acetylcholinesterase (Electrophorus electricus, UniProt O42275) (O42275 whole entry): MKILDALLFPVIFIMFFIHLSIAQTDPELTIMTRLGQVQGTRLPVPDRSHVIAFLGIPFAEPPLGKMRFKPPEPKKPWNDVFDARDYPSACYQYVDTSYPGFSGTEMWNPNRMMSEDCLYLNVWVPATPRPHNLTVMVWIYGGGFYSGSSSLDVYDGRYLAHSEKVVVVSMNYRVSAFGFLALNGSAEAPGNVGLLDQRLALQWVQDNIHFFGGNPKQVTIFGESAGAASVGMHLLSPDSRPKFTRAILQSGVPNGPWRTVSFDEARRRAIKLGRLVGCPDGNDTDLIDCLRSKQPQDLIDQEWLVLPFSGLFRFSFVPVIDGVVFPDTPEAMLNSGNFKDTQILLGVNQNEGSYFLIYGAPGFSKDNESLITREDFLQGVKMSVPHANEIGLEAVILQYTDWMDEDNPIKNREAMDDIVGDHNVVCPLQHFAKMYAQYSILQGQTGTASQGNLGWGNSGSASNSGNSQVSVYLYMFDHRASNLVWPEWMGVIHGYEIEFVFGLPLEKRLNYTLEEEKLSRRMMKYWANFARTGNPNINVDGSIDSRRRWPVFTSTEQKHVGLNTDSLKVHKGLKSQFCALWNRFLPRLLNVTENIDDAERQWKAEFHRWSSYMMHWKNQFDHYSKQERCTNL

| Structure (SMILES) | IC50 [1] | IC50 [2] | IC50 [3] |
| --- | --- | --- | --- |
| COc1ccc2nc(NCCc3cc[n+](Cc4ccccc4)cc3)sc2c1 | 3010 nM | 441 nM | 186 nM |
| O=[N+]([O-])c1ccc2nc(NCCc3cc[n+](Cc4ccc(F)cc4)cc3)sc2c1 | 11900 nM | 25 nM | 96 nM |
| COc1ccc2nc(NCCc3cc[n+](Cc4c(F)cccc4F)cc3)sc2c1 | 826 nM | 408 nM | 203 nM |
| COc1ccc2nc(NCCc3cc[n+](Cc4ccc(F)cc4)cc3)sc2c1 | 5630 nM | 542 nM | 223 nM |
| Fc1ccc(C[n+]2ccc(CCNc3nc4ccc(F)cc4s3)cc2)cc1 | 8160 nM | 500 nM | 269 nM |
